Assay results from US4362743A, “Antibacterial monic acid esters” (Beecham Group Limited, priority 1980, dated 1982).
Converted amounts (≈) assume the structure as drawn. Read-outs that look alike come from different tables or passages of the source.

Tests used:
Type in all cases: cell-based
M. gallisepticum S6 = assay: Anti-mycoplasmal activity in vitro MIC; conditions: Mycoplasmoides gallisepticum
Sarcina lutea 8340 = assay: Human bacteria MIC; conditions: Micrococcus luteus; Sarcina lutea 8340; nutrient agar, 5% chocolated horse blood, 18 hours 37° C.; read-out: M.I.C.
Procedure: The values were determined by serial dilutions in nutrient agar with 5% chocolated horse blood after incubations for 18 hours at 37° C.

M. suipneumoniae Str. 11 = assay: Anti-mycoplasmal activity in vitro MIC; conditions: Mesomycoplasma hyopneumoniae
M. dispar NCTC 10125 = assay: Anti-mycoplasmal activity in vitro MIC; conditions: 144 h
[1] = test system: M. suipneumoniae ATCC 25095; assay: Anti-mycoplasmal activity in vitro MIC; conditions: Mesomycoplasma hyopneumoniae, ATCC25095, 144 h
[2] = test system: M. suipneumoniae NCTC 10110; assay: Anti-mycoplasmal activity in vitro MIC; conditions: Mesomycoplasma hyopneumoniae, NCTC10110, 144 h
M. suipneumoniae JF 435 = assay: Anti-mycoplasmal activity in vitro MIC; conditions: Mesomycoplasma hyopneumoniae, JF435, 144 h
M. suipneumoniae TAM 6N = assay: Anti-mycoplasmal activity in vitro MIC; conditions: Mesomycoplasma hyopneumoniae, TAM6N, 144 h
[3] = test system: Erysipelothrix rhusiopathiae NCTC 8163; assay: Veterinary bacteria MIC
Procedure: (§1) The values were determined using a two fold serial dilutions in Diagnostic Sensitivity Test Agar with an inoculum of 10^4 organisms and incubation for 18 hours at 37° C.

Staph. aureus Oxford = assay: Veterinary bacteria MIC; conditions: Staphylococcus aureus, Diagnostic Sensitivity Test Agar, 18 hours 37° C.
Procedure: as §1

Past. haemolytica PA5 = assay: Veterinary bacteria MIC; conditions: Mannheimia haemolytica; Past. haemolytica PA5; Diagnostic Sensitivity Test Agar, 18 hours 37° C.; read-out: M.I.C.
Procedure: as §1

E. coli NCTC 10418 = assay: Veterinary bacteria MIC; conditions: Escherichia coli, NCTC10418; E. coli NCTC 10418; Diagnostic Sensitivity Test Agar, 18 hours 37° C.; read-out: M.I.C.
Procedure: as §1

Strep. dysgalactiae SPD1 = assay: Veterinary bacteria MIC; conditions: Streptococcus dysgalactiae, Diagnostic Sensitivity Test Agar, 18 hours 37° C.
Procedure: as §1

Strep. uberis SPU1 = assay: Veterinary bacteria MIC; conditions: Streptococcus uberis, Diagnostic Sensitivity Test Agar, 18 hours 37° C.
Procedure: as §1

E. coli El = assay: Veterinary bacteria MIC; conditions: Escherichia coli; E. coli El; Diagnostic Sensitivity Test Agar, 18 hours 37° C.; read-out: M.I.C.
Procedure: as §1

Bord. bronchiseptica B08 = assay: Veterinary bacteria MIC; conditions: Bordetella bronchiseptica; Bord. bronchiseptica B08; Diagnostic Sensitivity Test Agar, 18 hours 37° C.; read-out: M.I.C.
Procedure: as §1

S. typhimurium S18 = assay: Veterinary bacteria MIC; conditions: Salmonella enterica; S. typhimurium S18; Diagnostic Sensitivity Test Agar, 18 hours 37° C.; read-out: M.I.C.
Procedure: as §1

Bord. brochiasetpica B09 = assay: Veterinary bacteria MIC; conditions: Diagnostic Sensitivity Test Agar, 18 hours 37° C.
Procedure: as §1

[4] = test system: Staph. aureus B4 (pen. resistant); assay: Veterinary bacteria MIC; conditions: Staphylococcus aureus, Diagnostic Sensitivity Test Agar, 18 hours 37° C.
Procedure: as §1

Past. multocida PA1 = assay: Veterinary bacteria MIC; conditions: Pasteurella multocida, Diagnostic Sensitivity Test Agar, 18 hours 37° C.
Procedure: as §1

[5] = test system: Strep. suis (Group D) SPS11; assay: Veterinary bacteria MIC; conditions: Streptococcus suis; Strep. suis (Group D) SPS11; Diagnostic Sensitivity Test Agar, 18 hours 37° C.; read-out: M.I.C.
Procedure: as §1

[6] = test system: Corynebacterium pyogenes CY1; assay: Veterinary bacteria MIC; conditions: Trueperella pyogenes; Corynebacterium pyogenes CY1; Diagnostic Sensitivity Test Agar, 18 hours 37° C.; read-out: M.I.C.
Procedure: as §1

Strep. agalactiae SPA1 = assay: Veterinary bacteria MIC; conditions: Streptococcus agalactiae, Diagnostic Sensitivity Test Agar, 18 hours 37° C.
Procedure: as §1

[7] = test system: Staph. aureus 152 (pen. sens); assay: Veterinary bacteria MIC; conditions: Staphylococcus aureus, Diagnostic Sensitivity Test Agar, 18 hours 37° C.
Procedure: as §1

Past. multocida PA2 = assay: Veterinary bacteria MIC; conditions: Pasteurella multocida
Procedure: as §1

S. dublin S7 = assay: Veterinary bacteria MIC; conditions: Salmonella enterica; S. dublin S7; Diagnostic Sensitivity Test Agar, 18 hours 37° C.; read-out: M.I.C.
Procedure: as §1

[8] = test system: M. suipneumoniae J2206/183b; assay: Anti-mycoplasmal activity in vitro MIC; conditions: Mesomycoplasma hyopneumoniae, 144 h
M. suipneumoniae MS16 = assay: Anti-mycoplasmal activity in vitro MIC; conditions: Mesomycoplasma hyopneumoniae
M. hyorhinis ATCC 23234 = assay: Anti-mycoplasmal activity in vitro MIC; conditions: Mesomycoplasma hyorhinis, ATCC23234, 144 h
M. pneumoniae ATCC 15492 = assay: Anti-mycoplasmal activity in vitro MIC; conditions: Mycoplasmoides pneumoniae, ATCC15492, 144 h
[9] = M. suipneumoniae ATCC 25095, Friis broth, 0.9% agarose, 6 days 37° C., read-out: M.I.C.
[10] = M. suipneumoniae JF 435, Friis broth, 0.9% agarose, 6 days 37° C., read-out: M.I.C.
[11] = M. suipneumoniae TAM 6N, Friis broth, 0.9% agarose, 6 days 37° C., read-out: M.I.C.
[12] = NCTC8163, Erysipelothrix rhusiopathiae NCTC 8163, Diagnostic Sensitivity Test Agar, 18 hours 37° C., read-out: M.I.C.
[13] = Past. multocida PA2, Diagnostic Sensitivity Test Agar, 18 hours 37° C., read-out: M.I.C.
[14] = M. suipneumoniae J2206/183b, Friis broth, 0.9% agarose, 6 days 37° C., read-out: M.I.C.
[15] = 144 h, M. gallisepticum S6, Friis broth, 0.9% agarose, 6 days 37° C., read-out: M.I.C.

SMILES: C/C(=C\C(=O)OC1CCC(=NO)CC1)C[C@@H]1OC[C@H](C[C@@H]2O[C@H]2[C@@H](C)[C@H](C)O)[C@@H](O)[C@H]1O (stereo partly drawn) [Example 3, 4-Hydroxyiminocyclohexyl monate A]
- MIC (M. gallisepticum S6; S6, 144 h): 5 µg/mL (≈ 11 µM)
- MIC (Sarcina lutea 8340): > 100 µg/mL
- MIC (M. suipneumoniae Str. 11; STR.11, 144 h): 0.25 µg/mL (≈ 0.549 µM)
- MIC (M. dispar NCTC 10125): 0.1 µg/mL (≈ 0.22 µM)
- MIC [1, 9]: 0.5 µg/mL (≈ 1.1 µM)
- MIC ([2]; M. suipneumoniae NCTC 10110, Friis broth, 0.9% agarose, 6 days 37° C., read-out: M.I.C.): 0.5 µg/mL (≈ 1.1 µM)
- MIC (M. suipneumoniae JF 435; [10]): 0.5 µg/mL (≈ 1.1 µM)
- MIC (M. suipneumoniae TAM 6N; [11]): 0.5 µg/mL (≈ 1.1 µM)
- MIC [3, 12]: 10 µg/mL (≈ 22 µM)
- MIC (Staph. aureus Oxford): 1.25 µg/mL (≈ 2.74 µM)
- MIC (Past. haemolytica PA5): 5 µg/mL (≈ 11 µM)
- MIC (E. coli NCTC 10418): > 80 µg/mL
- MIC (Strep. dysgalactiae SPD1): 0.312 µg/mL (≈ 0.685 µM)
- MIC (Strep. uberis SPU1): 0.156 µg/mL (≈ 0.342 µM)
- MIC (E. coli El): > 80 µg/mL
- MIC (Bord. bronchiseptica B08): > 80 µg/mL
- MIC (S. typhimurium S18): > 80 µg/mL
- MIC (Bord. brochiasetpica B09): 20 µg/mL (≈ 43.9 µM)
- MIC [4]: 2.5 µg/mL (≈ 5.49 µM)
- MIC (Past. multocida PA1): 1.25 µg/mL (≈ 2.74 µM)
- MIC [5]: 2.5 µg/mL (≈ 5.49 µM)
- MIC [6]: > 80 µg/mL
- MIC (Strep. agalactiae SPA1): 0.625 µg/mL (≈ 1.37 µM)
- MIC [7]: 1.25 µg/mL (≈ 2.74 µM)
- MIC (Past. multocida PA2; [13]): 0.312 µg/mL (≈ 0.685 µM)
- MIC (S. dublin S7): > 80 µg/mL
- MIC [8, 14]: 0.5 µg/mL (≈ 1.1 µM)
- MIC (M. suipneumoniae MS16; MS16, 144 h): 0.25 µg/mL (≈ 0.549 µM)
- MIC (M. hyorhinis ATCC 23234): 0.25 µg/mL (≈ 0.549 µM)
- MIC (M. pneumoniae ATCC 15492): 1 µg/mL (≈ 2.2 µM)

SMILES: C/C(=C\C(=O)OCCCC(=NO)c1cccs1)C[C@@H]1OC[C@H](C[C@@H]2O[C@H]2[C@@H](C)[C@H](C)O)[C@@H](O)[C@H]1O [Example 4, 4-Hydroxyimino-4-(2-thienyl)butyl monate A]
- MIC (M. gallisepticum S6; [15]): 10 µg/mL (≈ 19.5 µM)
- MIC (Sarcina lutea 8340): > 100 µg/mL
- MIC (M. suipneumoniae Str. 11; 144 h, M. suipneumoniae Str. 11, Friis broth, 0.9% agarose, 6 days 37° C., read-out: M.I.C.): 0.25 µg/mL (≈ 0.489 µM)
- MIC (M. dispar NCTC 10125; M. dispar NCTC 10125, Friis broth, 0.9% agarose, 6 days 37° C., read-out: M.I.C.): 0.1 µg/mL (≈ 0.195 µM)
- MIC [1]: 0.5 µg/mL (≈ 0.977 µM)
- MIC [2]: 0.5 µg/mL (≈ 0.977 µM)
- MIC (M. suipneumoniae JF 435): 0.5 µg/mL (≈ 0.977 µM)
- MIC (M. suipneumoniae TAM 6N): 0.5 µg/mL (≈ 0.977 µM)
- MIC [3, 12]: 20 µg/mL (≈ 39.1 µM)
- MIC (Staph. aureus Oxford): 0.312 µg/mL (≈ 0.61 µM)
- MIC (Past. haemolytica PA5): 20 µg/mL (≈ 39.1 µM)
- MIC (E. coli NCTC 10418): > 80 µg/mL
- MIC (Strep. dysgalactiae SPD1): 0.625 µg/mL (≈ 1.22 µM)
- MIC (Strep. uberis SPU1): 0.312 µg/mL (≈ 0.61 µM)
- MIC (E. coli El): > 80 µg/mL
- MIC (Bord. bronchiseptica B08): > 80 µg/mL
- MIC (S. typhimurium S18): > 80 µg/mL
- MIC (Bord. brochiasetpica B09): 5 µg/mL (≈ 9.77 µM)
- MIC [4]: 0.625 µg/mL (≈ 1.22 µM)
- MIC (Past. multocida PA1): 2.5 µg/mL (≈ 4.89 µM)
- MIC [5]: 10 µg/mL (≈ 19.5 µM)
- MIC [6]: > 80 µg/mL
- MIC (Strep. agalactiae SPA1): 0.625 µg/mL (≈ 1.22 µM)
- MIC [7]: 0.312 µg/mL (≈ 0.61 µM)
- MIC (Past. multocida PA2; PA2, 18 h): 0.156 µg/mL (≈ 0.305 µM)
- MIC (S. dublin S7): > 80 µg/mL
- MIC ([8]; J2206/183B): 0.5 µg/mL (≈ 0.977 µM)
- MIC (M. suipneumoniae MS16; 144 h, M. suipneumoniae MS16, Friis broth, 0.9% agarose, 6 days 37° C., read-out: M.I.C.): 0.25 µg/mL (≈ 0.489 µM)
- MIC (M. hyorhinis ATCC 23234; M. hyorhinis ATCC 23234, Friis broth, 0.9% agarose, 6 days 37° C., read-out: M.I.C.): 0.25 µg/mL (≈ 0.489 µM)
- MIC (M. pneumoniae ATCC 15492; M. pneumoniae ATCC 15492, Friis broth, 0.9% agarose, 6 days 37° C., read-out: M.I.C.): 2.5 µg/mL (≈ 4.89 µM)

SMILES: CON=C(CCCOC(=O)/C=C(\C)C[C@@H]1OC[C@H](C[C@@H]2O[C@H]2[C@@H](C)[C@H](C)O)[C@@H](O)[C@H]1O)c1ccccc1 [Example 5, 4-Methoxyimino-4-phenylbutyl monate A]
- MIC (M. gallisepticum S6; [15]): 10 µg/mL (≈ 19.2 µM)
- MIC (Sarcina lutea 8340): > 100 µg/mL
- MIC (M. suipneumoniae Str. 11; STR.11, 144 h): 0.25 µg/mL (≈ 0.481 µM)
- MIC (M. dispar NCTC 10125): 0.1 µg/mL (≈ 0.192 µM)
- MIC [1, 9]: 0.5 µg/mL (≈ 0.962 µM)
- MIC [2]: 0.25 µg/mL (≈ 0.481 µM)
- MIC (M. suipneumoniae JF 435; [10]): 0.5 µg/mL (≈ 0.962 µM)
- MIC (M. suipneumoniae TAM 6N; [11]): 0.5 µg/mL (≈ 0.962 µM)
- MIC ([3]; Erysipelothrix rhusiopathiae, NCTC8163, 18 h): 40 µg/mL (≈ 77 µM)
- MIC (Staph. aureus Oxford): 0.625 µg/mL (≈ 1.2 µM)
- MIC (Past. haemolytica PA5): 80 µg/mL (≈ 154 µM)
- MIC (E. coli NCTC 10418): > 80 µg/mL
- MIC (Strep. dysgalactiae SPD1): 1.25 µg/mL (≈ 2.41 µM)
- MIC (Strep. uberis SPU1): 0.625 µg/mL (≈ 1.2 µM)
- MIC (E. coli El): > 80 µg/mL
- MIC (Bord. bronchiseptica B08): > 80 µg/mL
- MIC (S. typhimurium S18): > 80 µg/mL
- MIC (Bord. brochiasetpica B09): 40 µg/mL (≈ 77 µM)
- MIC [4]: 0.625 µg/mL (≈ 1.2 µM)
- MIC (Past. multocida PA1): 20 µg/mL (≈ 38.5 µM)
- MIC [5]: 20 µg/mL (≈ 38.5 µM)
- MIC [6]: > 80 µg/mL
- MIC (Strep. agalactiae SPA1): 1.25 µg/mL (≈ 2.41 µM)
- MIC [7]: 0.625 µg/mL (≈ 1.2 µM)
- MIC (Past. multocida PA2; [13]): 0.039 µg/mL (≈ 0.0751 µM)
- MIC (S. dublin S7): > 80 µg/mL
- MIC [8, 14]: 0.5 µg/mL (≈ 0.962 µM)
- MIC (M. suipneumoniae MS16; MS16, 144 h): 0.25 µg/mL (≈ 0.481 µM)
- MIC (M. hyorhinis ATCC 23234): 0.25 µg/mL (≈ 0.481 µM)
- MIC (M. pneumoniae ATCC 15492): 2.5 µg/mL (≈ 4.81 µM)
